Assay results from patent publication US5229379A, “Certain N-substituted-amino-alkane phosphinic acid derivatives having anti-epileptic properties” (priority 1990, dated 1993).

How the values were obtained:
[1] = system: "spike and wave" discharges induced by carbamazepine in epileptic rats; test: Antagonism of the spike and wave discharges induced by carbamazepine in epileptic rats; assay type: in vivo, rat
Procedure: (§1) The method and test arrangement correspond to those of Pharmacological Example 1.
3-Aminopropyl(diethoxymethyl)phosphinic acid: Antagonism of the "spike and wave" discharges induced by carbamazepine. 3-Aminopropyl(diethoxymethyl)phosphinic acid was administered at time 0, and 20 mg/kg of carbamazepine were administered at time 40, in each case i.p..

[2] = system: "spike and wave" discharges induced by Vigabatrin® in epileptic rats; test: Antagonism of the spike and wave discharges induced by Vigabatrin in epileptic rats; assay type: in vivo, rat
Procedure: as §1
3-Aminopropyl(diethoxymethyl)phosphinic acid: Antagonism of the "spike and wave" discharges induced by Vigabatrin®.3-Aminopropyl(diethoxymethyl)phosphinic acid was administered at time 0, and 20 mg/kg of Vigabatrin® were administered at time 160, in each case i.p..

[3] = system: "spike and wave" discharges induced by phenytoin in epileptic rats; test: Antagonism of the spike and wave discharges induced by phenytoin in epileptic rats; assay type: in vivo, rat
Procedure: as §1
3-Aminopropyl(diethoxymethyl)phosphinic acid: Antagonism of the "spike and wave" discharges induced by phenytoin. 3-Aminopropyl(diethoxymethyl)phosphinic acid was administered at time 0, and 20 mg/kg of phenytoin were administered at time 40, in each case i.p..

[4] = system: "spike and wave" discharges in epileptic rats (male Wistar rats of the Strasbourg colony); test: Inhibition of spike and wave discharges in epileptic rats (absence epilepsy model); assay type: in vivo; conditions: epileptic rat model; for minimal effective dose: dose-dependent, read-out: dose that reduces the spike and wave discharges
Source text: Synchronous "spike and wave" discharges (SWD; frontopariental cortex; 7-8 Hz; 300-1000 μV, duration 0.5 to 40 s, mean value=6.0±3.4 s) and frequently myoclonia facialis accompany a cessation of behaviour. These absence-like conditions occur spontaneously and repeatedly. […] In contrast, a strain could be reared in which 100% of the rats are SWD-free (control rats). This pharmacological model is described in Vergnes M., Marescaux C., Micheletti G., Reis J., Depaulis A., Rumbach L. and Warter J. M., Neurosci. Lett. 33. 97-101 (1982).
In this model, for example, the clinically used anti-epileptics ethosuximide, diazepam, trimethadione and sodium valproate in doses≥25 mg/kg (ethosuximide),≥0.5 mg/kg (diazepam) and≥50 mg/kg (trimethadione and sodium valproate) reduce the spike and wave discharges in dose-dependent manner. […] Phenobarbital is effective at from 2.5 to 10 mg/kg and is ineffective at 20 mg/kg. The action of these anti-epileptics on the crises in rats and absences in humans supports the hypothesis that this animal model represents a pharmacological model for absence epilepsy. Its predictive value appears to be at least as good as that of other customary animal models.
The action of GABAB -antagonists was tested on male Wistar rats (300-400 g) of the Strasbourg colony. […] The rats received water and food ad libidum, and the light/dark cycle was 12/12 hours. The rats were anaesthetised with pentobarbital (40 mg/kg i.p.) and implanted bilaterally with 4 stainless steel electrodes (two in the frontal cortex and two in the parietal cortex). The rats were used for experiments no sooner than one week after the operation.
The rats, which were freely mobile, were accommodated in a Plexiglass cage (17×17×28 cm) (one rat per cage), and, after a 15-minute period for adaptation to the new surroundings, the EEG was recorded over a period of 20 minutes (reference period). The reference line for the particular test series is thus obtained. A GABAB -antagonist was then administered and the EEG was recorded over a period of from 120 to 180 minutes. The rats were kept under constant observation during this period and prevented from falling asleep by gentle manual contact.
The test compound was dissolved in 0.9% sodium chloride solution and injected in doses of 50, 100, 200 and 400 mg/kg i.p.. Alternatively, the test compound may be administered in a polyethylene glycol, such as Tween® 80, (2 drops/10 ml of suspension of the test compound in 0.9% sodium chloride solution; the suspension is homogenised at 40° for 10 minutes by means of ultrasound, injection volume: 2 ml/kg) i.p. or by means of a stomach probe p.o.. Test compounds that are soluble with difficulty are advantageously administered in solution in a mixture of dimethyl sulfoxide (not more than 10% by volume) and 0.9% sodium chloride solution or in 45% aqueous hydroxypropyl-β-cyclodextrin solution. Each animal is treated with all doses in a randomised sequence. The time between two treatments should be at least 5 days. The mean values ±SEM of the sum total duration of the "spike and wave" discharges of 6 rats over a period of 20 minutes are recorded.
The sum total duration of the spike and wave discharges (in seconds) is measured for each 20-minute period of the EEG recording. Comparisons between the treatment and the reference period are carried out by means of non-parametric variance analysis of the groups concerned (Friedman test). The control group and the treated groups are compared by means of the Wilcoxon test only when a significant difference between the two groups is found in the Friedmann test. The significances of the differences according to Wilcoxon between doses marked by an asteriks and dose 0 corresponds to p<0,005.

[5] = system: "epilepsy-like" discharges of pyramidal cells; test: Penicillin-induced epileptic hippocampus section preparation (antagonism to baclofen); assay type: cell-based
Procedure: The novel GABAB -antagonists according to the invention interact at the GABAB -receptor with IC50 values of approximately 10^-8 M (moles/l) and above in cerebral cortex membranes of rats. […] The compounds according to the invention act as an antagonist to baclofen action at concentrations of from approximately 10 to approximately 100 μM (micromoles/liter). […] At doses of approximately 30 mg/kg, antagonism to the muscle-relaxing action of baclofen occurs, which is measured in the Rotarod model.

For `CCOC(OCC)P(=O)(O)CCCN` [3-aminopropyl(diethoxymethyl)phosphinic acid], the “sum total duration of the spike and wave discharges” value (from here on “sum total duration”) ([1]; test compound 200 mg/kg i.p. at time 0, carbamazepine 20 mg/kg i.p. at time 40, period 0-20 min) was 353 ± 53 s, the “sum total duration” value ([1]; test compound 200 mg/kg i.p. at time 0, carbamazepine 20 mg/kg i.p. at time 40, period 20-40 min) was 178 ± 37 s and the “sum total duration” value ([1]; test compound 200 mg/kg i.p. at time 0, carbamazepine 20 mg/kg i.p. at time 40, period 40-60 min) was 173 ± 78 s. For the same compound, the “sum total duration” value ([1]; test compound 200 mg/kg i.p. at time 0, carbamazepine 20 mg/kg i.p. at time 40, period 60-80 min) was 70 ± 64 s, the “sum total duration” value ([1]; test compound 200 mg/kg i.p. at time 0, carbamazepine 20 mg/kg i.p. at time 40, period 80-100 min) was 18 ± 17 s and the “sum total duration” value ([1]; test compound 400 mg/kg i.p. at time 0, carbamazepine 20 mg/kg i.p. at time 40, period 0-20 min) was 115 ± 43 s. For the same compound, the “sum total duration” value ([1]; test compound 400 mg/kg i.p. at time 0, carbamazepine 20 mg/kg i.p. at time 40, period 20-40 min) was 93 ± 71 s, the “sum total duration” value ([1]; test compound 400 mg/kg i.p. at time 0, carbamazepine 20 mg/kg i.p. at time 40, period 40-60 min) was 23 ± 14 s and the “sum total duration” value ([1]; test compound 400 mg/kg i.p. at time 0, carbamazepine 20 mg/kg i.p. at time 40, period 60-80 min) was 29 ± 29 s. For the same compound, the “sum total duration” value ([1]; test compound 400 mg/kg i.p. at time 0, carbamazepine 20 mg/kg i.p. at time 40, period 80-100 min) was 9 ± 9 s, the “sum total duration” value ([2]; test compound 200 mg/kg i.p. at time 0, Vigabatrin 20 mg/kg i.p. at time 160, period 240-260 min) was 213 ± 52 s and the “sum total duration” value ([2]; test compound 200 mg/kg i.p. at time 0, Vigabatrin 20 mg/kg i.p. at time 160, period 260-280 min) was 249 ± 57 s. For the same compound, the “sum total duration” value ([2]; test compound 400 mg/kg i.p. at time 0, Vigabatrin 20 mg/kg i.p. at time 160, period 240-260 min) was 44 ± 13 s, the “sum total duration” value ([2]; test compound 400 mg/kg i.p. at time 0, Vigabatrin 20 mg/kg i.p. at time 160, period 260-280 min) was 28 ± 8 s and the “sum total duration” value ([3]; test compound 200 mg/kg i.p. at time 0, phenytoin 20 mg/kg i.p. at time 40, period 0-20 min) was 394 ± 87 s. The “sum total duration” value ([3]; test compound 200 mg/kg i.p. at time 0, phenytoin 20 mg/kg i.p. at time 40, period 20-40 min) was 172 ± 64 s, the “sum total duration” value ([3]; test compound 200 mg/kg i.p. at time 0, phenytoin 20 mg/kg i.p. at time 40, period 40-60 min) was 124 ± 85 s and the “sum total duration” value ([3]; test compound 200 mg/kg i.p. at time 0, phenytoin 20 mg/kg i.p. at time 40, period 60-80 min) was 239 ± 70 s. The “sum total duration” value ([3]; test compound 200 mg/kg i.p. at time 0, phenytoin 20 mg/kg i.p. at time 40, period 80-100 min) was 95 ± 37 s, the “sum total duration” value ([3]; test compound 400 mg/kg i.p. at time 0, phenytoin 20 mg/kg i.p. at time 40, period 0-20 min) was 139 ± 61 s and the “sum total duration” value ([3]; test compound 400 mg/kg i.p. at time 0, phenytoin 20 mg/kg i.p. at time 40, period 20-40 min) was 48 ± 40 s. For the same compound, the “sum total duration” value ([3]; test compound 400 mg/kg i.p. at time 0, phenytoin 20 mg/kg i.p. at time 40, period 40-60 min) was 31 ± 31 s, the “sum total duration” value ([3]; test compound 400 mg/kg i.p. at time 0, phenytoin 20 mg/kg i.p. at time 40, period 60-80 min) was 56 ± 53 s and the “sum total duration” value ([3]; test compound 400 mg/kg i.p. at time 0, phenytoin 20 mg/kg i.p. at time 40, period 80-100 min) was 42 ± 39 s.
With `CCC1(c2ccccc2)C(=O)NC(=O)NC1=O` [Phenobarbital] the “effect on the spike and wave discharges (in words)” value (shortened to “effect … (in words)”) ([4]; 20 mg/kg) was “ineffective”.
In the case of `C=CC(N)CCC(=O)O` (stereo not shown) [Vigabatrin®, Vigabatrin, reference compound], the “sum total duration” value ([2]; Vigabatrin 20 mg/kg i.p. at time 160 alone (antagonist dose 0), period 240-260 min) is reported as 875 ± 63 s and the “sum total duration” value ([2]; Vigabatrin 20 mg/kg i.p. at time 160 alone (antagonist dose 0), period 260-280 min) is reported as 938 ± 65 s.
In the case of `NCC(CC(=O)O)c1ccc(Cl)cc1` (stereo not shown) [baclofen], the “concentration that inhibits epilepsy-like discharges of pyramidal cells” value [5] is reported as 6 µM.
`NC(=O)N1c2ccccc2C=Cc2ccccc21` [carbamazepine, reference compound] was tested, and the “sum total duration” value ([1]; carbamazepine 20 mg/kg i.p. at time 40 alone (antagonist dose 0), period 40-60 min) was 636 ± 43 s, the “sum total duration” value ([1]; carbamazepine 20 mg/kg i.p. at time 40 alone (antagonist dose 0), period 60-80 min) was 669 ± 14 s and the “sum total duration” value ([1]; carbamazepine 20 mg/kg i.p. at time 40 alone (antagonist dose 0), period 80-100 min) was 675 ± 75 s. For the same compound, the “effect … (in words)” value [4] was “ineffective or make the attacks worse at high doses”.
`CN1C(=O)CN=C(c2ccccc2)c2cc(Cl)ccc21` [diazepam] showed a minimal effective dose [4] of at least 0.5 mg/kg.
`CCC1(C)CC(=O)NC1=O` (stereo not shown) [ethosuximide] gave a minimal effective dose [4] of at least 25 mg/kg.
For `O=C1NC(=O)C(c2ccccc2)(c2ccccc2)N1` [phenytoin, reference compound], the “effect … (in words)” value [4] was “ineffective or make the attacks worse at high doses”, the “sum total duration” value ([3]; phenytoin 20 mg/kg i.p. at time 40 alone (antagonist dose 0), period 40-60 min) was 555 ± 24 s and the “sum total duration” value ([3]; phenytoin 20 mg/kg i.p. at time 40 alone (antagonist dose 0), period 60-80 min) was 658 ± 27 s. The “sum total duration” value ([3]; phenytoin 20 mg/kg i.p. at time 40 alone (antagonist dose 0), period 80-100 min) was 562 ± 76 s.
Compound `CCCC(CCC)C(=O)[O-].[Na+]` [sodium valproate] has a minimal effective dose [4] of at least 50 mg/kg.
In the case of `CN1C(=O)OC(C)(C)C1=O` [trimethadione], the minimal effective dose [4] is reported as at least 50 mg/kg.
